# Literature values, collected in patent US8257686B2, “Compositions and methods relating to prevention of chemotherapy-induced alopecia” (HSF Pharmaceuticals S.A., priority 2000, dated 2012).
# Tested on: chemotherapy-induced hair loss
# Conditions: review Dorr 1998; Sredni et al. 1996
row,Compound,prevention of chemotherapy-induced hair loss
1,"C=C1/C(=C\C=C2/CCC[C@]3(C)[C@@H]([C@H](C)CCCC(C)(C)O)CC[C@@H]23)C[C@@H](O)C[C@@H]1O [1,25-dihydroxyvitamin D3]",showed a marked sex preference
2,"Cl[TeH]1(Cl)(Cl)OCCO1 [AS101, ammonium trichloro (dioxy-ethylene-0,0′) tellurate]",More promising results
3,Cc1c(C)c2c(c(C)c1O)CC[C@@](C)(CCC[C@H](C)CCC[C@H](C)CCCC(C)C)O2 [alpha-tocopherol],failed
4,C=C1/C(=C\C=C2/CCC[C@]3(C)[C@@H]([C@H](C)CCCC(C)(C)O)CC[C@@H]23)C[C@@H](O)C[C@@H]1O [calcitriol],failed
